Reference: patent publication US9295679B2, “Prodrugs of C-17-heteroaryl steroidal CYP17 inhibitors/antiandrogens: synthesis, in vitro biological activities, pharmacokinetics and antitumor activity” (University of Maryland, Baltimore, priority 2008, dated 2016)
Entries after “also recorded” stand apart in the source; their conditions may differ.

Assays:
DU-145 = assay: MTT cell viability assay, DU-145; format: cell-based; conditions: for GI90 / GI50: DU-145, MTT, 96 hours exposure
Protocol: (§1) All cell lines were obtained from American Type Culture Collection (Rockville, Md.) and maintained in RPMI 1640 media supplemented with 10% fetal bovine serum and 5% penicillin/streptomycin solution. Cells were grown as a monolayer in a humidified incubator (5% CO2) at 37° C. To determine the effect of the compounds on cell proliferation, cells were plated (2500 cells/well) in 96-well cell culture dishes (Corning, Inc. Corning, N.Y.). After a 24 hr attachment period, media was replaced with fresh media containing compounds (0.01 μM-100 μM) or vehicle (95% ethanol). The cells were then allowed to grow in the presence of the drugs for 96 hours. After 96 hours, relative cell viability was assessed using the MTT reagent (3-(4,5-dimethylthiazol-2-yl)-2,5-diphenyltetrazolium bromide) as described in Patel, et al. 2004^43. Experiments were carried out three times with six replicates per dose per experiment (n=18). Results were plotted using the average of each dose over all three experiments and fitted with a best-fit sigmoidal dose response variable slope curve using GraphPad Prism 4.01 (GraphPad Software, Inc.). […] Combination index (CI) was calculated as previously described^44. CI values less than 1 are considered synergistic.

LNCaP = assay: MTT cell viability assay, LNCaP; format: cell-based, human; conditions: 96 hours exposure; for GI50: Homo sapiens
Protocol: as §1

PC-3 = assay: MTT cell viability assay, PC-3; format: cell-based; conditions: for GI90 / GI50: MTT, 96 hours exposure
Protocol: Cells were grown as a monolayer in a humidified incubator (5% CO2) at 37° C. To determine the effect of the compounds on cell proliferation, cells were plated (2500 cells/well) in 96-well cell culture dishes (Corning, Inc. Corning, N.Y.). […] The cells were then allowed to grow in the presence of the drugs for 96 hours. […] Experiments were carried out three times with six replicates per dose per experiment (n=18). […] Combination index (CI) was calculated as previously described^44. CI values less than 1 are considered synergistic.

[1] = given clinically as the prodrug abiraterone acetate; cited from earlier work
PC-3 cells [2] = assay: Cell cycle analysis by flow cytometry in synchronized PC-3 cells; format: cell-based; conditions: 20 μM
Protocol: Cells were synchronized in the G1/G0 phase by maintaining them in 0.2% FBS-containing media for 96 hours. After starvation, media was replaced with normal growth media (10% FBS) containing vehicle (95% ethanol) or 20 μM VN/124-1 for 12, 18, and 24 hours. At each timepoint, cells were fixed in 70% ethanol at −20° C. for at least 24 hours. Fixed cells were then incubated with 1 mL propidium iodide (PI) staining buffer (1 mg/ml PI, 0.1% Triton-X, and 10 μg/ml RNase A dissolved in PBS) for 1 hour at room temperature and DNA content was measured by flow cytometry analysis using a FACSort flow cytometer (Becton Dickinson, San Jose, Calif.); 15,000 events were analyzed for each sample. ModFit LT version 3.1 (Verity Software House Ind., ME) was used to analyze cell cycle distribution.

PC-3 cells [3] = assay: Ca2+ transients in PC-3 cells (Fluo-3AM); format: cell-based; conditions: 20 μM; for transient rise in [Ca2+]i, mean ΔF/Fo: Fluo-3AM
Protocol: (§2) PC-3 Cells were loaded with either fura-2 or fluo-3 indicator by incubation with 2 μM fura-2/AM or 2 μM fluo-3/AM in RPMI 1640 medium containing 10% fetal bovine serum for >60 min at room temperature. During experiments, the coverslips were mounted in a flow chamber and superfused with oxygenated Locke solution containing (in mM): 10 glucose, 136 NaCl, 5.6 KCl, 1.2 NaH2PO4, 14.3 NaHCO3, 1.2 MgCl2, and 2.2 CaCl2, pH 7.4, at room temperature (22-24° C.).
(§3) Cells loaded with fura-2 were placed in a perfusion chamber mounted on an inverted microscope (TE200; Nikon, Tokyo, Japan) equipped with a UV-transmitting objective (SuperFluor, 40×, N.A. 1.4, Nikon). Fura-2 was alternately excited by 340 nm and 380 nm light from monochrometers (Deltascan Illumination System, Photonic Technology International (PTI), South Brunswick, N.J.) and fura-2 emission was passed through a 515 nm longpass filter before detection by a cooled CCD camera (Retiga 2000R, Q-Imaging, Burnaby, Canada). For measurement of Ca^2+ transients in individual cells, coverslips with fluo-3 loaded cells were excited by the output of a 100 W mercury arc lamp that passed through a 480 nm bandpass filter (30 nm bandwidth). Fluorescence emission was passed through a 515 nm longpass filter before capture by a cooled CCD camera (Retiga 2000R, Q-Imaging). Image acquisition was performed with QCapture Pro (Q-Imaging) and analysis was performed with ImageJ (U.S. National Institutes of Health, Bethesda, Md., USA).
Fluo-3 Ca^2+ indicator measurements are reported as the fractional change in fluorescence intensity relative to baseline (ΔF/F0), which was determined as follows. Within a temporal sequence of fluorescence images, a region of interest (ROI) was drawn around each cell to be analyzed. The fluorescence signal from each cell was calculated as the pixel-averaged intensity within each ROI. In these experiments, a slight downward drift in baseline was typically observed, which was principally attributable to photo-bleaching of the indicator. […]

PC-3 cells [4] = assay: Western blot of ERSR related proteins in PC-3 cells; format: cell-based
Protocol: Protein was isolated, subjected to SDS-PAGE, transferred and imaged as previously described^45. All primary antibodies were purchased from Cell Signaling (Danvers, Mass.). Quantitation of relative protein expression was determined via densitometry using the software ImageQuant 5.0 (Molecular Dynamics) with each protein normalized to its respective loading control. Results represent the average of at least three independent experiments, with representative blots shown.

PC-3 cells [5] = assay: Real-time PCR (qRT-PCR) of stress response and cell cycle genes in PC-3 cells; format: cell-based; conditions: 20 μM, 24 hr
Protocol: Cells were treated, lysed and RNA collected and quantified using the same method outlined above. Cells were dosed independently on three separate days (n=3). 1 μg of total RNA was converted to cDNA using ReactionReady™ First Strand cDNA Synthesis kit (SuperArray Bioscience Corp.; Frederick, Md.) following the manufacturer's protocol. 50 ng of template cDNA was then used in subsequent real-time PCR (qRT-PCR) reactions. Template was combined with target gene specific or β-actin control RT^2 PCR Primer Sets, RT^2 Real-Time™ SYBR Green/Rox Master Mix (SuperArray Bioscience Corp.), and ddH2O for a final reaction volume of 25 μL and run on a 7900HT Fast Real-Time PCR system (Applied Biosystems; Foster City, Calif.) following the manufacturer's protocol. Fold changes were calculated using the ΔΔCt method as recommended by the manufacture's protocol.

[6] = mice, s.c. 50 mg/kg, cited from earlier work
[7] = tested on: androgen-dependent LAPC4 human prostate tumor xenograft; conditions: cited from earlier work
PC-3 cells [8] = assay: Absolute [Ca2+]i in PC-3 cells (Fura-2AM); format: cell-based; conditions: for average [Ca2+]i: Fura-2AM, control 36.49 nM
Protocol: as §2, §3
Fluo-3 Ca^2+ indicator measurements are reported as the fractional change in fluorescence intensity relative to baseline (ΔF/F0), which was determined as follows. Within a temporal sequence of fluorescence images, a region of interest (ROI) was drawn around each cell to be analyzed. The fluorescence signal from each cell was calculated as the pixel-averaged intensity within each ROI. In these experiments, a slight downward drift in baseline was typically observed, which was principally attributable to photo-bleaching of the indicator. In such cases, the drift was always well fit by a low-amplitude single-exponential decay. The fitted baseline value (F0) at every time point was then used to calculate ΔF/F0. ΔF/F0 values are reported as mean±SE. For fura-2 measurements, [Ca^2+]i was derived using the ratio method of Grynkiewicz et al.^46

PC-3 cells [9] = assay: Microarray global gene expression in PC-3 cells; format: cell-based; conditions: 20 μM, 24 hrs
Protocol: After 24 hour exposure to the agent, total RNA was isolated using the Qiagen RNeasy-Mini Kit following the manufacturer's protocol. Experiments were carried out in duplicate, with triplicate samples (dosed independently on 3 different days) from each experiment pooled for analysis on a single chip. Samples were hybridized to a GeneChip® Human Genome Focus Array (Affymetrix Inc., U.S.A.) and analyzed using an Affymetrix Genechip® Scanner 3000 according to the manufacturer's protocol. Gene ontologies were identified using the online Database for Annotation, Visualization, and Integrated Discovery (DAVID) provided by the National Institute of Allergy and Infectious Diseases and the National Institute of Health. […] Stringent criteria of a minimum EASE/P-Value threshold of 0.001 and a gene count threshold of 5 were used to identify altered gene ontologies.

[10] = Oral bioavailability in rat; conditions: in vivo

C[C@]12CC[C@H](O)CC1=CC[C@@H]1[C@@H]2CC[C@]2(C)C(c3cccnc3)=CC[C@@H]12 [Abiraterone, abiraterone, reference compound]
GI90 (DU-145): >100 µM
GI90 (LNCaP): 25.12 µM
GI90 (PC-3): >100 µM
peak plasma concentrations [1]: below 1 μM

C[C@]12CC[C@H](O)CC1=CC[C@@H]1[C@@H]2CC[C@]2(C)C(n3cnc4ccccc43)=CC[C@@H]12 [Compound 5, 3β-hydroxy-17-(1H-benzimidazole-1-yl)androsta-5,16-diene]
exit from G1 phase of the cell cycle (PC-3 cells [2]): prevent the exit from G1 phase
transient rise in [Ca2+]i, mean ΔF/Fo (PC-3 cells [3]; extracellular calcium present): 0.613
transient rise in [Ca2+]i, mean ΔF/Fo (PC-3 cells [3]; extracellular calcium removed): 0.967
Ca2+ transient after depletion of ER calcium stores (PC-3 cells [3]; pretreatment with SERCA inhibitor CPA): completely abolished
GI90 (DU-145): 15.95 µM
GI50 (DU-145; Homo sapiens): 7.55 µM
phosphorylation of eIF2α (PC-3 cells [4]; 20 μM, 6 and 24 hours, PC-3): induced the phosphorylation of eIF2α
cyclin D1 protein (PC-3 cells [4]; PC-3, after 24 hrs): down-regulation of cyclin D1 protein significantly
CHOP gene expression (PC-3 cells [5]): strongly up-regulated
activating transcription factor 4 (ATF4) gene expression (PC-3 cells [5]): up-regulated
asparagines synthetase (ASNS) gene expression (PC-3 cells [5]): up-regulated
cyclin D1 mRNA levels (PC-3 cells [5]): not affected
cyclin E2 mRNA (PC-3 cells [5]): significantly reduced
detectability in plasma at 8 hours [6]: neither was detectable
peak plasma levels [6]: 16.82 ng/mL
reduction in the mean final tumor volume compared with controls ([7]; 50 mg/kg/twice daily, P=0.00065): 93.8%
effect on growth of LAPC4 tumor xenograft ([7]; Compound 6 at 0.15 mmol/kg twice daily): very effective; also recorded: marked suppression
GI90 (LNCaP): 31.99 µM
GI50 (LNCaP): 3.15 µM
effect on [Ca2+]i (PC-3 cells [8]; 1 μM Compound 5, 2 hours): did not have a significant effect
average [Ca2+]i (PC-3 cells [8]; 5 μM, 2 hours): 79.13 nM
average [Ca2+]i (PC-3 cells [8]; 10 μM, 2 hours): 96.63 nM
average [Ca2+]i (PC-3 cells [8]; 20 μM, 2 hours): 79.89 nM
down-regulated gene ontologies (PC-3 cells [9]): associated with the cell cycle, especially S-phase (DNA replication)
most enriched up-regulated gene ontologies (PC-3 cells [9]): those relating to stress and metabolism, in particular amino acid metabolism
S100P calcium binding protein gene expression (PC-3 cells [9]; validated by qRT-PCR): most highly up-regulated gene
GI50 (PC-3; Homo sapiens): 7.82 µM
GI90 (PC-3): 18.62 µM
bioavailability [10]: ~10%

C[C@]12CCC(=O)C=C1CC[C@@H]1[C@@H]2CC[C@]2(C)C(n3cnc4ccccc43)=CC[C@@H]12 [Compound 6, 17-(1H-benzimidazole-1-yl)androsta-4,16-diene-3-one]
GI90 (DU-145): 15.53 µM
terminal half-lives ([6]; plasma): 39.93 min
detectability in plasma at 8 hours [6]: neither was detectable
peak plasma levels [6]: 5.15 ng/mL
GI90 (LNCaP): 13.46 µM
GI90 (PC-3): 8.07 µM

C[C@]12CC[C@H](O)CC1=CC[C@@H]1[C@@H]2CC[C@]2(C)C(n3cncn3)=CC[C@@H]12 [Compound 16, 3β-Hydroxy-17-(1H-1,2,4-triazol-1-yl)androsta-5,16-diene]
GI90 (DU-145): >100 µM
GI50 (DU-145; Homo sapiens): 11 µM
GI90 (LNCaP): >100 µM
GI50 (LNCaP): 1.05 µM
GI50 (PC-3; Homo sapiens): 2.91 µM
GI90 (PC-3): >100 µM

C[C@]12CC[C@H](O)CC1=CC[C@@H]1[C@@H]2CC[C@]2(C)C(n3ccnc3)=CC[C@@H]12 [Compound 17, 3β-Hydroxy-17-(1H-imidazol-1-yl)androsta-5,16-diene]
GI90 (DU-145): 31.62 µM
GI50 (DU-145; Homo sapiens): 5.31 µM
GI90 (LNCaP): 36.49 µM
GI50 (LNCaP): 2.47 µM
GI50 (PC-3; Homo sapiens): 1.86 µM
GI90 (PC-3): 30.41 µM

C[C@]12CC[C@H](O)CC1=CC[C@@H]1[C@@H]2CC[C@]2(C)C(=O)CC[C@@H]12 [DHEA, dihydroandrosterone, reference compound]
GI50 (DU-145): > 100 µM
growth inhibitory activity against DU-145 cells (DU-145; up to 100 μM): lacked any growth inhibitory activity
effect on the protein markers measured (PC-3 cells [4]; 20 μM DHA, PC-3): no significant effect
effect on [Ca2+]i (PC-3 cells [8]; 20 μM DHA, 2 hours): did not have a significant effect
fold less potent than Compound 5 in inhibiting PC-3 cells (PC-3): ~10 fold
GI50 (PC-3): 67.6 µM
GI90 (PC-3): >100 µM
